From article PMC10726355, “Small Molecule Ligands of the BET-like Bromodomain, SmBRD3, Affect Schistosoma mansoni Survival, Oviposition, and Development” (Journal of Medicinal Chemistry, 2023)

Legend:
[1] = target: T1, SmBRD3(2) (Schistosoma mansoni, UniProt A0A5K4ESD7); test: biochemical; assay type: binding
[2] = target: T1, SmBRD3(2); test: Differential scanning fluorimetry (thermal shift), SmBRD3(2); assay type: binding; conditions: DSF; 50 μM compound
Description: Reported ΔTm values are the mean of two replicates.
Differential scanning fluorimetry assay
The differential scanning fluorimetry (DSF) or thermal stability assays were carried out following the protocol described by Niesen et al. and data were analysed as described previously.8 Thermal melting experiments were carried out using the Mx3005p real-time PCR machine (Agilent) and employing a protein concentration of 5 μM for the schistosomal bromodomains [SmBRD3(2), […]
the DMSO content was 0.5% (v/v). Buffer conditions were 50 mM HEPES buffer, pH 7.5, 500 mM NaCl and a 1:500 dilution of SYPRO® Orange (Invitrogen, CA) was used. The 96-well PCR plates were sealed and centrifuged for 2 min at 1000 rpm at 25 °C before measurement. The temperature was raised with a step of 1 °C per 30 s from 25 °C to 85 °C, and fluorescence readings were taken at each interval. […]
Isothermal titration calorimetry experiments were performed on a MicroCal PEAQ-ITC Automated or Manual (Malvern) and analysed with the MicroCal PEAQ-ITC Analysis software (Malvern 1.1.0.1262) using a single binding site model. […]
Male adult schistosomes were seeded into 24-well tissue culture plates (5 worms/well), dosed with compounds (20 µM in 0.2% DMSO v/v) and incubated for 24 h at 37 °C in 5% CO2. […] When ready for processing, worms were removed from the −80 °C and subject to 3 rounds of repeated snap freeze:thawing. […]

[3] = test system: SmBRD3(1,2); test: Differential scanning fluorimetry (thermal shift), SmBRD3(1,2); conditions: DSF; 50 μM compound
Description: difference between the transition midpoints of sample and reference wells containing protein without inhibitor in the same plate. Reported ΔTm values are the mean of two replicates.
Isothermal titration calorimetry experiments were performed on a MicroCal PEAQ-ITC Automated or Manual (Malvern) and analysed with the MicroCal PEAQ-ITC Analysis software (Malvern 1.1.0.1262) using a single binding site model. For each experiment, the first data point was removed from the analysis. The proteins were dialysed at 4 °C overnight in a Slide-A-LyzerR MINI Dialysis Device (2000 MWCO; Thermo Scientific Life Technologies) into 50 mM HEPES, 150 mM NaCl containing 0.2% DMSO; pH 7.4. Proteins were centrifuged to remove aggregates (3 min, 3000 rpm, 25 °C).
Compounds were dissolved as a DMSO stock solution and diluted to the required concentration using dialysis buffer (DMSO free) and to a final DMSO concentration of 0.2% (unless otherwise specified). The cell was stirred at 750 rpm, reference power set to 5 μcal/s and temperature held at 25 °C. After an initial delay of 60 s, 19 x 2 μL injections (first injection 0.4 μL) were performed with a spacing of 180 s. […]

[4] = target: SmBRD3(1,2) (Schistosoma mansoni, UniProt A0A5K4ESD7); test: biochemical; assay type: binding; conditions: for Kd: ITC
SmBRD3(1,2) (Schistosoma mansoni, UniProt A0A5K4ESD7), sequence (A0A5K4ESD7 entry or part of it): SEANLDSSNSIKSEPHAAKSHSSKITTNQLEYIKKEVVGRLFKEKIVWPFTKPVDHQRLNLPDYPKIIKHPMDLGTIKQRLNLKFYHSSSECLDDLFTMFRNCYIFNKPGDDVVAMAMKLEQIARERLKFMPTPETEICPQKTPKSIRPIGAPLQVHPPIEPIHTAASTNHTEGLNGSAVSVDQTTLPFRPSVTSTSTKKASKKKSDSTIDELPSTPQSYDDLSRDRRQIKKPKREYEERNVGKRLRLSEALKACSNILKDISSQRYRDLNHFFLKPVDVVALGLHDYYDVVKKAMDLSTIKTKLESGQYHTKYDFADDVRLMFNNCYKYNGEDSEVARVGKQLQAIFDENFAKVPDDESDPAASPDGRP

T1 sequence (A0A5K4ESD7 entry or part of it): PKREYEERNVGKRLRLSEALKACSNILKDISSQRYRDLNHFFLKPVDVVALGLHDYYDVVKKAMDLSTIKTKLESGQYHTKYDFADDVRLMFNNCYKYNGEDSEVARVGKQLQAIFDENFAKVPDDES

CC(=O)N1c2ccc(-c3ccc(C(=O)O)cc3)cc2[C@H](Nc2ccc(Cl)cc2)C[C@@H]1C [I-BET726 (8), I-BET726, reference compound]
N number, binding to SmBRD3(2), Repeat 1 ([1]; ITC stoichiometry, Repeat 1): 1.12 ± 4.2e-2 | N number, binding to SmBRD3(2), Mean ([1]; ITC stoichiometry, mean of repeats): 1.12 ± 4.2e-2 | Kd ([1]; SmBRD3(2) Kd, ITC, single value ± error of the curve fit or mean of 2-3 repeats ± s.e.m.): 1.85 ± 0.361 µM | Kd ([1]; SmBRD3(2) Kd, Repeat 1, ITC, single run ± error of curve fit, Repeat 1): 1.85 ± 0.361 µM | Kd ([1]; SmBRD3(2) pKd, ITC): 2 µM | Thermal stabilisation (ΔTm) of SmBRD3(2) [2]: stabilize both SmBRD3(1,2) and SmBRD3(2) | Thermal stabilisation (ΔTm) of SmBRD3(1,2) [3]: stabilize both SmBRD3(1,2) and SmBRD3(2) | N number, binding to SmBRD3(1,2) ([4]; ITC stoichiometry, n=1 ± error of curve fit): 1.66 ± 6.7e-2 | Kd ([4]; SmBRD3(1,2) Kd, n = 1 ± error of the curve fit): 1.52 ± 0.52 µM | Kd ([4]; SmBRD3(1,2) pKd): 1.58 µM
